This is an account of results in patent publication US20170333591A9, “ABSORBENT ARTICLE COMPRISING MALODOR REDUCTION COMPOSITIONS” (The Procter & Gamble Company, priority 2014, published 2017).

Structures are written as SMILES.

This data set is described as follows: Log of liquid dish neat product liquid-air partition coefficient. The class given is physicochemical. The settings on record: for Log of liquid dish neat product liquid-air partition coefficient (Comment Code): code letters K/L of the Comment Code.

On to `CC(C)(C=O)CC1=CCC2CC1C2(C)C` (stereo not shown) [Material 925], for which the “Log of liquid dish neat product liquid-air partition coefficient (Comment Code)” value (from here on “Log … (Comment Code)”) is “K (Log of liquid dish neat product liquid-air partition coefficient greater than or equal to 7)”.

Regarding `CC(=O)c1cc2c(cc1C)C(C)(C)C(C)C2(C)C` (stereo not shown) [Material 927], the “Comment Code: Log of liquid dish neat product liquid-air partition coefficient” value (shortened to “Comment Code: Log”) is recorded as “K (Log of liquid dish neat product liquid-air partition coefficient greater than or equal to 7)” and the “Log … (Comment Code)” value was “K (Log of liquid dish neat product liquid-air partition coefficient greater than or equal to 7)”.

Turning to `Cc1cccc(CCO)c1` [Material 928], the “Log … (Comment Code)” value is “K (Log of liquid dish neat product liquid-air partition coefficient greater than or equal to 7)”.

Consider `CCC=CCC=CCCO` [Material 929], for which the “Log … (Comment Code)” value is recorded as “K (Log of liquid dish neat product liquid-air partition coefficient greater than or equal to 7)”.

As for `CCCCCCCCCCC=CC=O` [Material 930], the “Log … (Comment Code)” value was “K (Log of liquid dish neat product liquid-air partition coefficient greater than or equal to 7)”.

With `C=C(OC(C)=O)c1ccccc1` [Material 931], the “Comment Code: Log” value was “K (Log of liquid dish neat product liquid-air partition coefficient greater than or equal to 7)”.

Take `CC1CCC2(O)C(C)(C)C3CCC2(C)C1C3` (stereo not shown) [Material 933]: the “Comment Code: Log” value is “K (Log of liquid dish neat product liquid-air partition coefficient greater than or equal to 7)” and the “Log … (Comment Code)” value is “K (Log of liquid dish neat product liquid-air partition coefficient greater than or equal to 7)”.

`CCCCCC(=O)Oc1ccc(C)cc1` [Material 939]: the “Log … (Comment Code)” value is on record as “K (Log of liquid dish neat product liquid-air partition coefficient greater than or equal to 7)”.

Take `CCCCC/C=C/C=C\C(=O)OCC` [Material 942]: the “Log … (Comment Code)” value is “K (Log of liquid dish neat product liquid-air partition coefficient greater than or equal to 7)”.

On to `N#CC(=C1CCCCC1)c1ccccc1` [Material 945], for which the “Log … (Comment Code)” value is “K (Log of liquid dish neat product liquid-air partition coefficient greater than or equal to 7)”.

Regarding `C=C(C)C1CC=C(C=O)CC1` (stereo not shown) [Material 946], the “Log … (Comment Code)” value is “K (Log of liquid dish neat product liquid-air partition coefficient greater than or equal to 7)”.

On to `C=C(C)C1CC=C(COC(C)=O)CC1` (stereo not shown) [Material 947], for which the “Log … (Comment Code)” value is on record as “K (Log of liquid dish neat product liquid-air partition coefficient greater than or equal to 7)”.

With `C=C(C)C1CC=C(CO)CC1` (stereo not shown) [Material 948], the “Log … (Comment Code)” value is recorded as “K (Log of liquid dish neat product liquid-air partition coefficient greater than or equal to 7)”.

Regarding `CCCCC/C=C/C=C\C(=O)OCC` [Material 951], the “Log … (Comment Code)” value is “K (Log of liquid dish neat product liquid-air partition coefficient greater than or equal to 7)”.

Turning to `c1ccc(CCOC2CCCCC2)cc1` [Material 953], the “Log … (Comment Code)” value is reported as “K (Log of liquid dish neat product liquid-air partition coefficient greater than or equal to 7)”.

For the molecule `CCC(C)C(=O)OCCc1ccccc1` (stereo not shown) [Material 954], the “Log … (Comment Code)” value is recorded as “K (Log of liquid dish neat product liquid-air partition coefficient greater than or equal to 7)”.

Regarding `OCCc1ccccc1` [Material 955], the “Log … (Comment Code)” value is “K (Log of liquid dish neat product liquid-air partition coefficient greater than or equal to 7)”.

Consider `O=COCCc1ccccc1` [Material 956], for which the “Comment Code: Log” value was “K (Log of liquid dish neat product liquid-air partition coefficient greater than or equal to 7)”.

With `CC(C)C(=O)OCCc1ccccc1` [Material 958], the “Comment Code: Log” value is “K (Log of liquid dish neat product liquid-air partition coefficient greater than or equal to 7)”.

In the case of `C/C=C(\C)C(=O)OCCc1ccccc1` [Material 960], the “Comment Code: Log” value is “K (Log of liquid dish neat product liquid-air partition coefficient greater than or equal to 7)”.

As to `O=C(Oc1ccccc1)c1ccccc1` [Material 965], the “Log … (Comment Code)” value is given as “K (Log of liquid dish neat product liquid-air partition coefficient greater than or equal to 7)”.

On to `C=C(C)C(=O)OCCc1ccccc1` [Material 971], for which the “Comment Code: Log” value is recorded as “K (Log of liquid dish neat product liquid-air partition coefficient greater than or equal to 7)”.

`CC(C)c1ccc(CC=O)cc1` [Material 977]: the “Comment Code: Log” value is given as “K (Log of liquid dish neat product liquid-air partition coefficient greater than or equal to 7)”.

Regarding `CC(C)(C)C(=O)OC1CC2CC1C1CC=CC21` (stereo not shown) [Material 978], the “Comment Code: Log” value is “K (Log of liquid dish neat product liquid-air partition coefficient greater than or equal to 7)” and the “Log … (Comment Code)” value is given as “K (Log of liquid dish neat product liquid-air partition coefficient greater than or equal to 7)”.

`CC(C)C1=CCC(C)(O)CC1` (stereo not shown) [Material 982]: the “Log … (Comment Code)” value is reported as “K (Log of liquid dish neat product liquid-air partition coefficient greater than or equal to 7)”.

On to `COc1ccc(CC(C)=O)cc1` [Material 983], for which the “Comment Code: Log” value is given as “K (Log of liquid dish neat product liquid-air partition coefficient greater than or equal to 7)”.

Turning to `CC1=CCC(/C=C/C(C)(C)C(C)O)C1(C)C` (stereo not shown) [Material 985], the “Log … (Comment Code)” value is given as “K (Log of liquid dish neat product liquid-air partition coefficient greater than or equal to 7)”.

Regarding `CC(C)=CCCC1=CCC(C)(C=O)CC1` (stereo not shown) [Material 988], the “Log … (Comment Code)” value is listed as “K (Log of liquid dish neat product liquid-air partition coefficient greater than or equal to 7)”.

For `CC(C)(C)c1ccc(CC=O)cc1` [Material 994], the “Comment Code: Log” value is on record as “K (Log of liquid dish neat product liquid-air partition coefficient greater than or equal to 7)”.

On to `CCC(C)(C)C1CCC(O)CC1` (stereo not shown) [Material 995], for which the “Comment Code: Log” value was “K (Log of liquid dish neat product liquid-air partition coefficient greater than or equal to 7)”.

For `CCC=CCC=CC=CC(=O)OCC` [Material 1000], the “Log … (Comment Code)” value was “K (Log of liquid dish neat product liquid-air partition coefficient greater than or equal to 7)”.

On to `CC(=O)CCc1ccc(O)cc1` [Material 1002], for which the “Comment Code: Log” value is reported as “K (Log of liquid dish neat product liquid-air partition coefficient greater than or equal to 7)”.

For `CC1CC(C)(C)OC(Cc2ccccc2)O1` (stereo not shown) [Material 1003], the “Log … (Comment Code)” value is on record as “K (Log of liquid dish neat product liquid-air partition coefficient greater than or equal to 7)”.

As to `CC1CC(C)(c2ccccc2)CO1` (stereo not shown) [Material 1006], the “Log … (Comment Code)” value was “K (Log of liquid dish neat product liquid-air partition coefficient greater than or equal to 7)”.

As to `CC1=CC[C@@H]2C3CC([C@@H]2C1)[C@@]1(C3)OC1C` (stereo partly shown) [Material 1007], the “Comment Code: Log” value is recorded as “K (Log of liquid dish neat product liquid-air partition coefficient greater than or equal to 7)” and the “Log … (Comment Code)” value was “K (Log of liquid dish neat product liquid-air partition coefficient greater than or equal to 7)”.

`CC(CO)CCCc1ccccc1` (stereo not shown) [Material 1012]: the “Log … (Comment Code)” value is “K (Log of liquid dish neat product liquid-air partition coefficient greater than or equal to 7)”.

As to `CC1=CCOC(c2ccccc2)C1` (stereo not shown) [Material 1016], the “Log … (Comment Code)” value is reported as “K (Log of liquid dish neat product liquid-air partition coefficient greater than or equal to 7)”.

Consider `C=C[C@@](C)(O)CCC=C(C)C` [Material 1017], for which the “Comment Code: Log” value is given as “K (Log of liquid dish neat product liquid-air partition coefficient greater than or equal to 7)”.

For the molecule `C=CCc1ccc2c(c1)OCO2` [Material 1021], the “Log … (Comment Code)” value is “K (Log of liquid dish neat product liquid-air partition coefficient greater than or equal to 7)”.

For the molecule `CC1=CC(C)C2(CCCC(C)(C)C2=O)CC1` (stereo not shown) [Material 1022], the “Comment Code: Log” value was “K (Log of liquid dish neat product liquid-air partition coefficient greater than or equal to 7)” and the “Log … (Comment Code)” value is “K (Log of liquid dish neat product liquid-air partition coefficient greater than or equal to 7)”.

As for `CC1=CCC(CCC(C)C(C)O)C1(C)C` (stereo not shown) [Material 1023], the “Log … (Comment Code)” value is reported as “K (Log of liquid dish neat product liquid-air partition coefficient greater than or equal to 7)”.

For `CC/C(=C/CC1CC=C(C)C1(C)C)CO` (stereo not shown) [Material 1024], the “Comment Code: Log” value is listed as “K (Log of liquid dish neat product liquid-air partition coefficient greater than or equal to 7)” and the “Log … (Comment Code)” value is recorded as “K (Log of liquid dish neat product liquid-air partition coefficient greater than or equal to 7)”.

For `CC(=CCC1CC=C(C)C1(C)C)CO` (stereo not shown) [Material 1025], the “Log … (Comment Code)” value was “K (Log of liquid dish neat product liquid-air partition coefficient greater than or equal to 7)”.

In the case of `COC1CC2CC1C1CC(C=O)CC21` (stereo not shown) [Material 1026], the “Log … (Comment Code)” value was “K (Log of liquid dish neat product liquid-air partition coefficient greater than or equal to 7)”.

In the case of `COC1CC2CC1C1CC(C=O)CC21` (stereo not shown) [Material 1027], the “Comment Code: Log” value is on record as “K (Log of liquid dish neat product liquid-air partition coefficient greater than or equal to 7)” and the “Log … (Comment Code)” value is given as “K (Log of liquid dish neat product liquid-air partition coefficient greater than or equal to 7)”.
